Measurements reported in ChEMBL document CHEMBL2157909, “Design, synthesis, spectral and biological evaluation of novel 1-allyl substituted 2,6-diphenylpiperidin-4-ones and its derivatives of oximes/oxime ethers” (2012).
Values after ≈ are worked out from the molar mass of the structure shown.

How the values were obtained:
Rhizopus = assay: Antifungal activity against Rhizopus sp. ATCC 2842 after 72 to 96 hrs by two fold serial dilution method; assay type: functional
Fusarium oxysporum = assay: Antifungal activity against Fusarium oxysporum ATCC 48112 after 72 to 96 hrs by two fold serial dilution method; assay type: functional
Escherichia coli = assay: Antibacterial activity against Escherichia coli ATCC 26032 after 24 hrs by two fold serial dilution method; assay type: functional; settings: ATCC 26032, 24 h
Staphylococcus aureus = assay: Antibacterial activity against Staphylococcus aureus ATCC 25930 after 24 hrs by two fold serial dilution method; assay type: functional; settings: ATCC 25930, 24 h
Aspergillus flavus = assay: Antifungal activity against Aspergillus flavus ATCC 525 after 72 to 96 hrs by two fold serial dilution method; assay type: functional
Bacillus subtilis = assay: Antibacterial activity against Bacillus subtilis ATCC 530 after 24 hrs by two fold serial dilution method; assay type: functional; settings: ATCC 530, 24 h
Penicillium chrysogenum = assay: Antifungal activity against Penicillium chrysogenum ATCC 28089 after 72 to 96 hrs by two fold serial dilution method; assay type: functional
Aspergillus niger = assay: Antifungal activity against Aspergillus niger ATCC 635 after 72 to 96 hrs by two fold serial dilution method; assay type: functional
Salmonella typhi = assay: Antibacterial activity against Salmonella typhi ATCC 25021 after 24 hrs by two fold serial dilution method; assay type: functional, Salmonella enterica subsp. enterica serovar Typhi; settings: Salmonella enterica, ATCC 25021, 24 h
Pseudomonas = assay: Antibacterial activity against Pseudomonas ATCC 27853 after 24 hrs by two fold serial dilution method; assay type: functional; settings: ATCC 27853, 24 h
[1] = Ratio of MIC for Pseudomonas ATCC 27853 to MIC for Salmonella typhi ATCC 25021; assay type: functional
[2] = Ratio of MIC for Bacillus subtilis ATCC 530 to MIC for Salmonella typhi ATCC 25021; assay type: functional

| Compound | MIC (Rhizopus) [µg/mL] | MIC (Fusarium oxysporum) [µg/mL] | MIC (Escherichia coli) [µg/mL] | MIC (Staphylococcus aureus) [µg/mL] | MIC (Aspergillus flavus) [µg/mL] | MIC (Bacillus subtilis) [µg/mL] | MIC (Penicillium chrysogenum) [µg/mL] | MIC (Aspergillus niger) [µg/mL] | MIC (Salmonella typhi) [µg/mL] | MIC (Pseudomonas) [µg/mL] | Ratio [1] | Ratio [2] |
| --- | --- | --- | --- | --- | --- | --- | --- | --- | --- | --- | --- | --- |
| C=CCN1[C@@H](c2ccccc2)C(C)(C)C(=O)C[C@H]1c1ccccc1 (relative stereo) | 100 (≈ 313 µM) | 50 (≈ 157 µM) | 25 (≈ 78.3 µM) | 25 (≈ 78.3 µM) | 25 (≈ 78.3 µM) | 100 (≈ 313 µM) | 25 (≈ 78.3 µM) | 50 (≈ 157 µM) | 12.5 (≈ 39.1 µM) | 25 (≈ 78.3 µM) | – | – |
| C=CCN1[C@@H](c2ccccc2)C/C(=N/OCc2ccccc2)C[C@H]1c1ccccc1 (relative stereo) | 50 (≈ 126 µM) | 50 (≈ 126 µM) | 6.25 (≈ 15.8 µM) | 50 (≈ 126 µM) | 100 (≈ 252 µM) | 25 (≈ 63 µM) | 100 (≈ 252 µM) | 12.5 (≈ 31.5 µM) | 100 (≈ 252 µM) | 200 (≈ 504 µM) | – | – |
| C=CCN1[C@H](c2ccc(OC)cc2)C/C(=N\O)[C@@H](C)[C@@H]1c1ccc(OC)cc1 (relative stereo) | 25 (≈ 65.7 µM) | 25 (≈ 65.7 µM) | 50 (≈ 131 µM) | 25 (≈ 65.7 µM) | 12.5 (≈ 32.9 µM) | 100 (≈ 263 µM) | 100 (≈ 263 µM) | 50 (≈ 131 µM) | 100 (≈ 263 µM) | 12.5 (≈ 32.9 µM) | – | – |
| C=CCN1[C@H](c2ccc(C)cc2)C/C(=N\O)[C@@H](C)[C@@H]1c1ccc(C)cc1 (relative stereo) | 100 (≈ 287 µM) | 25 (≈ 71.7 µM) | 50 (≈ 143 µM) | 200 (≈ 574 µM) | 50 (≈ 143 µM) | 50 (≈ 143 µM) | 200 (≈ 574 µM) | 12.5 (≈ 35.9 µM) | 12.5 (≈ 35.9 µM) | 25 (≈ 71.7 µM) | 2 | 3 |
| C=CCN1[C@H](c2ccccc2)[C@@H](C)/C(=N/O)[C@@H](C)[C@@H]1c1ccccc1 (relative stereo) | 200 (≈ 598 µM) | 50 (≈ 149 µM) | 50 (≈ 149 µM) | 50 (≈ 149 µM) | 100 (≈ 299 µM) | 25 (≈ 74.7 µM) | 100 (≈ 299 µM) | 50 (≈ 149 µM) | 100 (≈ 299 µM) | 50 (≈ 149 µM) | – | – |
| C=CCN1[C@H](c2ccc(Cl)cc2)C/C(=N\OCc2ccccc2)[C@@H](C)[C@@H]1c1ccc(Cl)cc1 (relative stereo) | 6.25 (≈ 13 µM) | 25 (≈ 52.1 µM) | 12.5 (≈ 26.1 µM) | 6.25 (≈ 13 µM) | 12.5 (≈ 26.1 µM) | 25 (≈ 52.1 µM) | 6.25 (≈ 13 µM) | 25 (≈ 52.1 µM) | 50 (≈ 104 µM) | 100 (≈ 209 µM) | – | – |
| C=CCN1[C@H](c2ccc(Cl)cc2)CC(=O)[C@@H](C)[C@@H]1c1ccc(Cl)cc1 (relative stereo) | 25 (≈ 66.8 µM) | 12.5 (≈ 33.4 µM) | 12.5 (≈ 33.4 µM) | 25 (≈ 66.8 µM) | 25 (≈ 66.8 µM) | 50 (≈ 134 µM) | 6.25 (≈ 16.7 µM) | 50 (≈ 134 µM) | 12.5 (≈ 33.4 µM) | 50 (≈ 134 µM) | – | – |
| C=CCN1[C@H](c2ccc(Cl)cc2)C/C(=N\O)[C@@H](C)[C@@H]1c1ccc(Cl)cc1 (relative stereo) | 25 (≈ 64.2 µM) | 12.5 (≈ 32.1 µM) | 100 (≈ 257 µM) | 6.25 (≈ 16.1 µM) | 50 (≈ 128 µM) | 50 (≈ 128 µM) | 50 (≈ 128 µM) | 6.25 (≈ 16.1 µM) | 12.5 (≈ 32.1 µM) | 50 (≈ 128 µM) | – | – |
| C=CCN1[C@H](c2ccccc2)C/C(=N\O)[C@@H](CC)[C@@H]1c1ccccc1 (relative stereo) | 50 (≈ 149 µM) | 25 (≈ 74.7 µM) | 100 (≈ 299 µM) | 25 (≈ 74.7 µM) | 6.25 (≈ 18.7 µM) | 12.5 (≈ 37.4 µM) | 50 (≈ 149 µM) | 12.5 (≈ 37.4 µM) | 25 (≈ 74.7 µM) | 50 (≈ 149 µM) | – | – |
| C=CCN1[C@@H](c2ccccc2)CC(=O)C[C@H]1c1ccccc1 | 50 (≈ 172 µM) | 100 (≈ 343 µM) | 200 (≈ 686 µM) | 6.25 (≈ 21.4 µM) | 100 (≈ 343 µM) | 100 (≈ 343 µM) | 12.5 (≈ 42.9 µM) | 25 (≈ 85.8 µM) | 50 (≈ 172 µM) | 25 (≈ 85.8 µM) | – | – |
| C=CCN1[C@H](c2ccccc2)CC(=O)[C@@H](CC)[C@@H]1c1ccccc1 (relative stereo) | 12.5 (≈ 39.1 µM) | 50 (≈ 157 µM) | 50 (≈ 157 µM) | 100 (≈ 313 µM) | 100 (≈ 313 µM) | 12.5 (≈ 39.1 µM) | 25 (≈ 78.3 µM) | 25 (≈ 78.3 µM) | 100 (≈ 313 µM) | 100 (≈ 313 µM) | – | – |
| CN[C@@H]1[C@H](O[C@H]2[C@H](O[C@H]3[C@H](O)[C@@H](O)[C@H](N=C(N)N)[C@@H](O)[C@@H]3N=C(N)N)O[C@@H](C)[C@]2(O)C=O)O[C@@H](CO)[C@H](O)[C@H]1O [STREPTOMYCIN] | – | – | 12.5 (≈ 21.5 µM) | 50 (≈ 86 µM) | – | 12.5 (≈ 21.5 µM) | – | – | 50 (≈ 86 µM) | 25 (≈ 43 µM) | – | – |
